One may read the EC50 as the concentration at which the effect is half-maximal. A higher EC50 goes with lower potency in that assay.

Molecules are shown by their SMILES.

The values below come from patent US6908935B2, “Calcium receptor modulating agents” (Amgen Inc., priority 2002, dated 2005).

The test has as its target T1, human parathyroid cell Ca^2+ receptor (hPCaR) (Homo sapiens, UniProt P41180).
T1 construct: expressed in transfected cells
T1 sequence (P41180 20-1078): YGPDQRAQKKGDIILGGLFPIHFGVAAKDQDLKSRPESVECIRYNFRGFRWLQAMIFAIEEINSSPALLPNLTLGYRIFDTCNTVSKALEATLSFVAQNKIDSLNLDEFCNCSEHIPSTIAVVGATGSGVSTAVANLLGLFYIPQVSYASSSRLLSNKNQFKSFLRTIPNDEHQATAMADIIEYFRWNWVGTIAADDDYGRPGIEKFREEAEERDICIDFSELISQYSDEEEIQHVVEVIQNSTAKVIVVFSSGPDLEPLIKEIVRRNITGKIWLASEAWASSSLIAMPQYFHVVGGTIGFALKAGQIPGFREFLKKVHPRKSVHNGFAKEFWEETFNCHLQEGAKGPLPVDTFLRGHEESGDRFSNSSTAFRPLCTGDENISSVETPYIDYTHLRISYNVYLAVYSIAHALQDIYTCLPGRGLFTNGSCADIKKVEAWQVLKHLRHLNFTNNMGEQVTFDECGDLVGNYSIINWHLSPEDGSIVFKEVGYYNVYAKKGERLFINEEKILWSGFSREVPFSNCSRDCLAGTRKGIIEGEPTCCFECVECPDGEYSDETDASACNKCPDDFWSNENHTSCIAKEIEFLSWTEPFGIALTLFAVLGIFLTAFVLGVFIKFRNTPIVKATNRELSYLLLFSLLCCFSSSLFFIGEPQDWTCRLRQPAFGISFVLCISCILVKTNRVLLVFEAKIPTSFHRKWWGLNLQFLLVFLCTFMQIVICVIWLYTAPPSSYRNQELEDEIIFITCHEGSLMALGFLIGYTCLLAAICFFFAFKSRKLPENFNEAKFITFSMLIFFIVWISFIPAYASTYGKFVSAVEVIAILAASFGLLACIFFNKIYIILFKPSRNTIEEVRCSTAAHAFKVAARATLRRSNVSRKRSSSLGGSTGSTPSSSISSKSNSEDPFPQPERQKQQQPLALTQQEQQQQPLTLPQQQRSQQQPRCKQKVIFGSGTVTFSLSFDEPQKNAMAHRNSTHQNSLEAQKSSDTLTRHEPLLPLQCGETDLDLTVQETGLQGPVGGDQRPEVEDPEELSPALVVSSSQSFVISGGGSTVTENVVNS
The test can be described thus: [Ca2+]i measurement with fluo-3 in HEK 293 4.0-7 cells stably transfected with hPCaR. The format is cell-based. The note with it: fluo-3 fluorescence (485/530 nm), effect on [Ca^2+]i. The gist of the method:
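Cytosolic [Ca2+] was read as fluo-3 fluorescence (ex 485/em 530 nm) after compound addition to washed cells. Cells were hPCaR-transfected HEK 293 clone 7, dye-loaded 30 min at 37 °C with 2 μM fluo-3 acetoxymethyl ester in HEPES-buffered saline pH 7.45 containing 1 mM CaCl2 and 0.5% BSA.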
For `COc1ccc(-c2cc(CN[C@H](C)c3cccc(OC)c3)ccc2F)cc1` [(1R)-N-((6-fluoro-4′-(methyloxy)-1,1′-biphenyl-3-yl)methyl)-1-(3-(methyloxy)phenyl)ethanamine], the EC50 was at most 10 µM.
For `COc1ccc(-c2cc(CN[C@H](C)c3ccc(OC)cc3)ccc2F)cc1` [(1R)-N-((6-fluoro-4′-(methyloxy)-1,1′-biphenyl-3-yl)methyl)-1-(4-(methyloxy)phenyl)ethanamine] the value was at most 10 µM; for `COc1ccc(-c2cc(CN[C@H](C)c3ccc(C)cc3)ccc2F)cc1` [(1R)-N-((6-fluoro-4′-(methyloxy)-1,1′-biphenyl-3-yl)methyl)-1-(4-methylphenyl)ethanamine], at most 10 µM; for `C[C@@H](NCc1ccc(F)c(-c2ccc(C(F)(F)F)cc2)c1)c1ccccc1` [(1R)-N-((6-fluoro-4′-(trifluoromethyl)-1,1′-biphenyl-3-yl)methyl)-1-phenylethanamine], at most 10 µM.
For `C[C@@H](NCc1ccc(I)c(-c2ccc(C(F)(F)F)cc2)c1)c1cccc2ccccc12` [(1R)-N-((6-iodo-4′-(trifluoromethyl)-1,1′-biphenyl-3-yl)methyl)-1-(1-naphthalenyl)ethanamine] the value was at most 10 µM.
For `COc1cccc([C@@H](C)NCc2ccc(I)c(-c3ccc(C(F)(F)F)cc3)c2)c1` [(1R)-N-((6-iodo-4′-(trifluoromethyl)-1,1′-biphenyl-3-yl)methyl)-1-(3-(methyloxy)phenyl)ethanamine] the value was at most 10 µM; for `C[C@@H](NCc1ccc(I)c(-c2ccc(C(F)(F)F)cc2)c1)c1ccccc1` [(1R)-N-((6-iodo-4′-(trifluoromethyl)-1,1′-biphenyl-3-yl)methyl)-1-phenylethanamine], at most 10 µM.
With `COc1ccc(CN[C@@H](C)c2ccccc2)cc1-c1ccc(C(F)(F)F)cc1` [(1S)-N-((6-(methyloxy)-4′-(trifluoromethyl)-1,1′-biphenyl-3-yl)methyl)-1-phenylethanamine], the 50% effective concentration (EC50) was at most 10 µM.
In the case of `C[C@@H](NCc1cccc(-c2nccs2)c1)c1cccc2ccccc12` [Example 217, (1R)-1-(1-naphthalenyl)-N-((3-(1,3-thiazol-2-yl)phenyl)methyl)ethanamine] it was at most 10 µM; in that of `C[C@@H](NCc1cccc(-c2nccs2)c1)c1ccccc1` [Example 218, (1R)-1-phenyl-N-((3-(1,3-thiazol-2-yl)phenyl)methyl)ethanamine], at most 10 µM.
For `COc1cccc([C@@H](C)NCc2cccc(-c3ccoc3)c2)c1` [Example 222, (1R)-N-((3-(3-furanyl)phenyl)methyl)-1-(3-(methyloxy)phenyl)ethanamine] the value was at most 10 µM.
In the case of `COc1ccc([C@@H](C)NCc2cccc(-c3ccoc3)c2)cc1` [Example 223, (1R)-N-((3-(3-furanyl)phenyl)methyl)-1-(4-(methyloxy)phenyl)ethanamine] it was at most 10 µM.
`Cc1ccc([C@@H](C)NCc2cccc(-c3ccoc3)c2)cc1` [Example 224, (1R)-N-((3-(3-furanyl)phenyl)methyl)-1-(4-methylphenyl)ethanamine] showed an EC50 of at most 10 µM.
In the case of `C[C@@H](NCc1cccc(-c2ccoc2)c1)c1cccc2ccccc12` [Example 225, (1R)-N-((3-(3-furanyl)phenyl)methyl)-1-(1-naphthalenyl)ethanamine] it was at most 10 µM; in that of `C[C@@H](NCc1cccc(-c2ccoc2)c1)c1ccccc1` [Example 226, (1R)-N-((3-(3-furanyl)phenyl)methyl)-1-phenylethanamine], at most 10 µM.
In the case of `COc1ccc(CN[C@H](C)c2ccccc2)cc1-c1cnccn1` [Example 238, (1R)-N-((4-(methyloxy)-3-(2-pyrazinyl)phenyl)methyl)-1-phenylethanamine] it was at most 10 µM; in that of `Cc1ccc([C@@H](C)NCc2cccc(-c3ncnc4c3ncn4C)c2)cc1` [Example 241, (1R)-1-(4-methylphenyl)-N-((3-(9-methyl-9H-purin-6-yl)phenyl)methyl)ethanamine], at most 10 µM.
For `CC(=O)Nc1ccc(-c2cccc(CN[C@H](C)c3ccccc3)c2)cn1` [Example 250, N-(5-(3-((((1R)-1-phenylethyl)amino)methyl)phenyl)-2-pyridinyl)acetamide] the value was at most 10 µM.
`C[C@@H](NCc1ccc(F)c(-c2ccc(F)cc2)c1)c1ccccc1` [Example 251, (1R)-N-((4′,6-difluoro-1,1′-biphenyl-3-yl)methyl)-1-phenylethanamine]: the concentration giving a half-maximal response (EC50) is at most 10 µM.
In the case of `COc1ccccc1-c1cc(CN[C@H](C)c2ccccc2)ccc1OC` [Example 253, (1R)-N-((2′,6-bis(methyloxy)-1,1′-biphenyl-3-yl)methyl)-1-phenylethanamine] it was at most 10 µM.
`COc1ccc(CN[C@H](C)c2ccccc2)cc1-c1ccc2ocnc2c1` [Example 264, (1R)-N-((3-(1,3-benzoxazol-5-yl)-4-(methyloxy)phenyl)methyl)-1phenylethanamine] returned an EC50 of at most 10 µM.
With `C[C@@H](NCc1ccc(C(F)(F)F)c(-c2ccc(C(F)(F)F)cc2)c1)c1ccccc1` [Example 314, (1R)-N-((4′,6-bis(trifluoromethyl)-1,1′-biphenyl-3-yl)methyl)-1-phenylethanamine], the concentration for a half-maximal effect (EC50) is at most 10 µM.
`COc1ccc(-c2cc(CN[C@H](C)c3ccccc3)ccc2O)cc1` [Example 391, 4′-(methyloxy)-5-((((1R)-1-phenylethyl)amino)methyl)-1,1′-biphenyl-2-ol] showed an EC50 of at most 10 µM.
`C[C@@H](NCc1ccc(Cl)c(-c2cccnc2)c1)c1ccccc1` [Example 434, (1R)-N-((4-chloro-3-(3-pyridinyl)phenyl)methyl)-1-phenylethanamine] displayed an EC50 of at most 10 µM.
In the case of `C[C@@H](NCc1ccc(Cl)c(-c2cccnc2)c1)c1cccc2ccccc12` [Example 435, (1R)-N-((4-chloro-3-(3-pyridinyl)phenyl)methyl)-1-(1-naphthalenyl)ethanamine] it was at most 10 µM; in that of `COc1cccc(-c2cc(CN[C@H](C)c3ccccc3)ccc2OC)c1` [Example 449, (1R)-N-((3′,6-bis(methyloxy)-1,1′-biphenyl-3-yl)methyl)-1-phenylethanamine], at most 10 µM; in that of `CC[C@@H](NCc1ccc(OC)c(-c2ccc(OC)cc2)c1)c1ccccc1` [Example 450, (1R)-N-((4′,6-bis(methyloxy)-1,1′-biphenyl-3-yl)methyl)-1-phenyl-1-propanamine], at most 10 µM.
In the case of `Cc1ccc(CN[C@H](C)c2ccccc2)cc1-c1cccnc1` [Example 451, (1R)-N-((4-methyl-3-(3-pyridinyl)phenyl)methyl)-1-phenylethanamine] it was at most 10 µM; in that of `Cc1noc(-c2cccc(CN[C@H](C)c3ccccc3)c2)n1` [Example 453, (1R)-N-((3-(3-methyl-1,2,4-oxadiazol-5-yl)phenyl)methyl)-1-phenylethanamine], at most 10 µM; in that of `C[C@@H](NCc1cccc(-c2cncc(C(N)=O)c2)c1)c1cccc2ccccc12` [Example 460, 5-(3-((((1R)-1-(1-naphthalenyl)ethyl)amino)methyl)phenyl)-3-pyridinecarboxamide], at most 10 µM.
In the case of `C[C@@H](NCc1cccc(-c2cncc(C(N)=O)c2)c1)c1ccc2ccccc2c1` [Example 461, 5-(3-((((1R)-1-(2-naphthalenyl)ethyl)amino)methyl)phenyl)-3-pyridinecarboxamide] it was at most 10 µM.
